This is an account of results in patent US8362000B2, “Azetidinyl diamides as monoacylglycerol lipase inhibitors” (Janssen Pharmaceutica NV, priority 2009, dated 2013).

Test [1] concerns the target T1, purified wild type MGL (wt-MGLL 6H-11-313) (Homo sapiens, UniProt Q99685).
T1 sequence (Q99685 1-303): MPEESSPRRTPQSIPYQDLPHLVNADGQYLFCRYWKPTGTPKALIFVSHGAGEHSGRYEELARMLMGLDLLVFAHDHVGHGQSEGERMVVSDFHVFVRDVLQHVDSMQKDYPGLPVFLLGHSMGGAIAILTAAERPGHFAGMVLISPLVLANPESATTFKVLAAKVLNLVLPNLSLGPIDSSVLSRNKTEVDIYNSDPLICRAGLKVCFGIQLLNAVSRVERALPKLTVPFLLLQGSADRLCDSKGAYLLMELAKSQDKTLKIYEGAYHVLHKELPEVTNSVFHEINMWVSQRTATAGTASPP

The target of another test is T2, mutant MGL (Homo sapiens, UniProt Q99685, L169S/L176S).
T2 sequence (Q99685 1-303 L169S/L176S): T1 sequence (Q99685 1-303) with L169S, L176S
The test can be described thus: MGL ThermoFluor assay - mutant. Type of test: binding.

The mark [2] stands for this setting: ThermoFluor concentration-response, read-out: MGL mutant ThermoFluor Kd.
The mark [3] stands for this setting: ThermoFluor thermal stability binding assay, read-out: MGL mutant ThermoFluor Kd.
Where [4] appears, read: ThermoFluor, compound concentration measured by qNMR, read-out: MGL mutant ThermoFluor qKd (using qNMR conc.).
[5] abbreviates: compound concentration measured by qNMR, read-out: MGL mutant ThermoFluor qKd (using qNMR conc.).
[6] abbreviates: ThermoFluor, compound concentration measured by qNMR, read-out: MGL mutant ThermoFluor qKd (μM) (using qNMR conc.).

Where a chain is given by its changes, count along the chain named. Read-outs that look alike come from different tables or passages of the source.

A word on the IC50: it is the concentration at which inhibition is half-maximal. Lower therefore signals greater potency in that assay. The molecule `O=C(c1ccc2c(c1)CCN2C(=O)c1ccccc1)N1CC(N2CCN(C(=O)c3nccs3)CC2)C1` [Cpd 724, 1-(Phenylcarbonyl)-5-({3-[4-(1,3-thiazol-2-ylcarbonyl)piperazin-1-yl]azetidin-1-yl}carbonyl)-2,3-dihydro-1H-indole] had an IC50 in test [1] of 206 nM. On mutant MGL (setting [2]), the Kd came out at 0.05 µM.

With `O=C(c1ccc(-c2cccc(C(F)(F)F)c2)cc1)N1CCN(C2CN(C(=O)c3cocn3)C2)CC1` [Cpd 1258], the midpoint of inhibition in test [1], the IC50, lay at 829 nM. For the same molecule, the Kd at mutant MGL (setting [3]) was found to be 0.02 µM.

In test [1], `O=C(c1ccc2c(c1)[nH]c(=O)n2-c1ccc(F)c(F)c1)N1CC(N2CCN(C(=O)c3cscn3)CC2)C1` [Cpd 941] showed an IC50 of 1370 nM. Moreover, the Kd on mutant MGL (setting [2]) is 0.389 µM.

On to `O=C(c1ccc(Oc2cccnc2)cc1)N1CC(N2CCN(C(=O)c3nccs3)CC2)C1` [Cpd 734], for which, in test [1], 256 nM corresponded to half-maximal inhibition (IC50). In addition, the Kd on mutant MGL (setting [2]) came out at 1.26 µM.

As to `O=C(c1ccccc1)N1CCc2cccc(C(=O)N3CC(N4CCN(C(=O)c5nccs5)CC4)C3)c2C1` [Cpd 1437], the IC50 in test [1] is over 16700 nM. At mutant MGL (setting [3]), the Kd turned out to be 33.3 µM.

`CCNC(=O)COc1ccc(C(=O)N2CC(N3CCN(C(=O)c4nccs4)CC3)C2)cc1` [Cpd 816] displayed an IC50 in test [1] of 2640 nM. Besides, on mutant MGL (setting [4]), the Kd turned out to be 2.84 µM.

`O=C(c1ccccc1)N1CCN(C2CN(C(=O)c3ccc(N4CCOCC4)nc3)C2)CC1` [Cpd 1485, 4-[5-({3-[4-(Phenylcarbonyl)piperazin-1-yl]azetidin-1-yl}carbonyl)pyridin-2-yl]morpholine]: in test [1], the IC50 was over 16700 nM. At mutant MGL (setting [2]), the Kd was 10 µM.

As for `O=C(c1nccs1)N1CCN(C2CN(C(=O)c3cccc4nc(-c5ccco5)[nH]c34)C2)CC1` [Cpd 1252], 706 nM corresponded to half-maximal inhibition in test [1] (IC50). The Kd at mutant MGL (setting [3]) worked out at 0.386 µM.

The molecule `Cc1nn(-c2ccc(F)cc2)c2ncc(C(=O)N3CC(N4CCN(C(=O)c5nccs5)CC4)C3)cc12` [Cpd 1203] displayed an IC50 in test [1] of 153 nM. In addition, at mutant MGL (setting [4]), the Kd came to 0.015 µM.

In the case of `O=C(c1ccc(-c2ccc(C(F)(F)F)s2)cc1)N1CC(N2CCN(C(=O)c3cncs3)CC2)C1` [Cpd 1268], the IC50 in test [1] stood at 1220 nM. For the same molecule, the Kd on mutant MGL (setting [5]) amounted to 0.039 µM.

In test [1], `O=C(c1ccc2c(ccn2-c2ccc(F)cn2)c1)N1CC(N2CCN(C(=O)c3nccs3)CC2)C1` [Cpd 1121, 1-(5-Fluoropyridin-2-yl)-5-({3-[4-(1,3-thiazol-2-ylcarbonyl)piperazin-1-yl]azetidin-1-yl}carbonyl)-1H-indole] gave an IC50 of 18 nM. In addition, the Kd at mutant MGL (setting [4]) stood at 0.042 µM.

With `O=C(c1ccc(S(=O)(=O)N2CCCCC2)cc1)N1CC(N2CCN(C(=O)c3nccs3)CC2)C1` [Cpd 947], the IC50 in test [1] turned out to be 1060 nM. In addition, at mutant MGL (setting [4]), the Kd turned out to be 0.653 µM.

With `O=C(c1ccc2nc(-c3nccs3)sc2c1)N1CC(N2CCN(C(=O)c3nccs3)CC2)C1` [Cpd 1210], in test [1], it took 195 nM to reach half-maximal inhibition (IC50). Also, the Kd at mutant MGL (setting [6]) turned out to be 0.097 µM.

As to `CC1CN(C(=O)c2nccs2)CCN1C1CN(C(=O)c2ccc(Cc3ccccc3)cc2)C1` (stereo not drawn) [Cpd 47, 1-{1-[(4-Benzylphenyl)carbonyl]azetidin-3-yl}-2-methyl-4-(1,3-thiazol-2-ylcarbonyl)piperazine], the IC50 in test [1] was found to be 129 nM. Besides, at mutant MGL (setting [2]), the Kd was determined as 0.0909 µM.

In turn, `O=C(c1ccc2[nH]c(-c3ccccc3)nc2c1)N1CC(N2CCN(C(=O)c3cscn3)CC2)C1` [Cpd 1299] yielded an IC50 in test [1] of 3860 nM. In addition, on mutant MGL (setting [2]), the Kd was determined as 1.1 µM.

For the molecule `Cc1nc2cc(C(=O)N3CCN(C4CN(C(=O)c5ccccc5)C4)CC3)ccc2n1C1CCCCC1` [Cpd 523], in test [1], 3130 nM corresponded to half-maximal inhibition (IC50). Also, the Kd on mutant MGL (setting [2]) was found to be 0.686 µM.

`O=C(c1cn[nH]c1)N1CCN(C2CN(C(=O)c3ccc(-c4ccccc4)cc3)C2)CC1` [Cpd 1310] yielded an IC50 in test [1] of 11600 nM. For the same molecule, on mutant MGL (setting [3]), the Kd stood at 8.35 µM.

As for `O=C(c1nccs1)N1CCN(C2CN(C(=O)c3cn(-c4cccc(F)c4)c4ccccc34)C2)CC1` [Cpd 1226], it took 282 nM to reach half-maximal inhibition in test [1] (IC50). Further, on mutant MGL (setting [6]), the Kd worked out at 0.193 µM.

`COc1ccc(C(C)(C)C)cc1C(=O)N1CC(N2CCN(C(=O)c3nccs3)CC2)C1` [Cpd 849] showed an IC50 in test [1] of 7010 nM. In addition, the Kd at mutant MGL (setting [2]) is 2.7 µM.

In turn, `Cc1nc2cc(C(=O)N3CC(N4CCN(C(=O)c5nccs5)CC4)C3)ccc2n1-c1ccc(F)cc1` [Cpd 1227] had an IC50 in test [1] of 287 nM. In addition, the Kd on mutant MGL (setting [5]) worked out at 0.011 µM.

In test [1], `O=C(c1ccccc1)N1CCN(C2CN(C(=O)c3sc4cc(C(F)(F)F)ccc4c3-c3ccccc3)C2)CC1` [Cpd 591] showed an IC50 of 212 nM. The Kd on mutant MGL (setting [3]) amounted to 0.007 µM.

For the molecule `Cc1nc2cc(C(=O)N3CC(N4CCN(C(=O)c5nccs5)CC4)C3)ccc2n1CCC(F)(F)F` [Cpd 777], the IC50 in test [1] stood at 913 nM. In addition, the Kd on mutant MGL (setting [5]) turned out to be 0.048 µM.

`O=C(c1cnc2cc(Cl)ccc2c1)N1CC(N2CCN(C(=O)c3nccs3)CC2)C1` [Cpd 787] yielded an IC50 in test [1] of 1210 nM. The Kd at mutant MGL (setting [4]) is 0.247 µM.

In test [1], `CCCCCCCCCCCCCCCCCCCC(=O)N1CC(N2CCN(C(=O)c3nccs3)CC2)C1` [Cpd 640] registered an IC50 of 15900 nM. Further, the Kd at mutant MGL (setting [2]) is 25 µM.

Molecule `O=C(c1ccc(-c2ccccc2)cc1)N1CC(N2CCN(C(=O)c3nccs3)CC2C(F)(F)F)C1` (stereo not drawn) [Cpd 1306, 1-[1-(Biphenyl-4-ylcarbonyl)azetidin-3-yl]-4-(1,3-thiazol-2-ylcarbonyl)-2-(trifluoromethyl)piperazine] gave an IC50 in test [1] of 8150 nM. Besides, the Kd on mutant MGL (setting [6]) came to 12.2 µM.

On to `O=C(c1nccs1)N1CCN(C2CN(C(=O)c3cccc4oc(-c5ccc(F)cc5)nc34)C2)CC1` [Cpd 1257], for which the IC50 in test [1] was determined as 827 nM. Besides, the Kd at mutant MGL (setting [3]) was determined as 0.009 µM.

Consider `O=C(c1ccc2c(ccn2-c2ccccn2)c1)N1CC(N2CCN(C(=O)c3ccc[nH]3)CC2)C1` [Cpd 1189, 1-Pyridin-2-yl-5-({3-[4-(1H-pyrrol-2-ylcarbonyl)piperazin-1-yl]azetidin-1-yl}carbonyl)-1H-indole], for which, in test [1], the IC50 came to 97 nM. The Kd on mutant MGL (setting [4]) came to 0.153 µM.

`O=C(c1ccccc1)N1CCN(C2CN(C(=O)c3ccc4c(ccn4-c4ccncc4)c3)C2)CC1` [Cpd 603, 5-({3-[4-(Phenylcarbonyl)piperazin-1-yl]azetidin-1-yl}carbonyl)-1-pyridin-4-yl-1H-indole] registered an IC50 in test [1] of 1720 nM. The Kd on mutant MGL (setting [4]) is 0.448 µM.

In the case of `O=C(c1cccc(-c2ccc(F)cc2F)c1)N1CC(N2CCN(C(=O)c3cscn3)CC2)C1` [Cpd 1239], in test [1], inhibition was half-maximal at 449 nM (IC50). Besides, on mutant MGL (setting [2]), the Kd came out at 3.04 µM.

The molecule `O=C(c1ccc2c(c1)CCN(C(=O)C1CCC(F)(F)CC1)C2)N1CC(N2CCN(C(=O)c3nccs3)CC2)C1` [Cpd 729] displayed an IC50 in test [1] of 236 nM. Further, on mutant MGL (setting [3]), the Kd was determined as 0.185 µM.

In turn, `O=C1c2ccccc2-c2ccc(C(=O)N3CC(N4CCN(C(=O)c5nccs5)CC4)C3)cc21` [Cpd 698] came in with an IC50 in test [1] of 65 nM. The Kd at mutant MGL (setting [4]) came out at 0.085 µM.

In test [1], `Cc1ccnc(-n2ccc3cc(C(=O)N4CC(N5CCN(C(=O)c6nccs6)CC5)C4)ccc32)c1` [Cpd 1128, 1-(4-Methylpyridin-2-yl)-5-({3-[4-(1,3-thiazol-2-ylcarbonyl)piperazin-1-yl]azetidin-1-yl}carbonyl)-1H-indole] had an IC50 of 21 nM. In addition, the Kd on mutant MGL (setting [4]) turned out to be 0.018 µM.

`O=C(c1ccc2[nH]c3c(c2c1)CCCC3)N1CC(N2CCN(C(=O)c3nccs3)CC2)C1` [Cpd 763]: in test [1], the IC50 came out at 635 nM. Besides, the Kd at mutant MGL (setting [2]) worked out at 0.083 µM.

In test [1], `O=C(c1ccc2c(c1)CCN2C(=O)C1CC1)N1CC(N2CCN(C(=O)c3nccs3)CC2)C1` [Cpd 773] registered an IC50 of 845 nM. Further, the Kd on mutant MGL (setting [2]) was determined as 0.04 µM.

Turning to `O=C(c1ccccc1)N1CCN(C2CN(C(=O)c3ccc4c(-c5ccc(C(F)(F)F)cc5)ncnc4c3)C2)CC1` [Cpd 597], half-maximal inhibition in test [1] (IC50) was put at 600 nM. Also, at mutant MGL (setting [2]), the Kd is 0.153 µM.

Regarding `O=C(c1ccc2nc(N3CCC(F)(F)CC3)sc2c1)N1CC(N2CCN(C(=O)c3nccs3)CC2)C1` [Cpd 671], the IC50 in test [1] stood at 16 nM. Further, on mutant MGL (setting [5]), the Kd was found to be 0.018 µM.

As to `C[C@@H]1CN(C2CN(C(=O)c3cc4ccc(C(F)(F)F)cc4s3)C2)C[C@H](C)N1C(=O)c1nccs1` [Cpd 954, (2R,6S)-2,6-Dimethyl-1-(1,3-thiazol-2-ylcarbonyl)-4-(1-{[6-(trifluoromethyl)-1-benzothiophen-2-yl]carbonyl}azetidin-3-yl)piperazine], in test [1], the IC50 was 2740 nM. Further, the Kd on mutant MGL (setting [4]) is 3.44 µM.

The molecule `COCCOc1ccc(C(=O)N2CC(N3CCN(C(=O)c4nccs4)CC3)C2)cc1` [Cpd 782] displayed a half-inhibitory concentration (IC50) in test [1] of 1070 nM. The Kd on mutant MGL (setting [4]) worked out at 0.463 µM.

Molecule `O=C(c1ccc(-n2cc(-c3ccc(Cl)cc3)cn2)cc1)N1CC(N2CCN(C(=O)c3nccs3)CC2)C1` [Cpd 1334] registered an IC50 in test [1] of under 5 nM. Further, the Kd at mutant MGL (setting [6]) came to 0.08 µM.
